{
  "source": "ChEMBL document CHEMBL3885881",
  "about": "“DrugMatrix”",
  "species": "Rattus norvegicus",
  "test": "DrugMatrix - Regimen: Daily Repeat",
  "type": "toxicity, organism-based, Sprague-Dawley",
  "parameters": "regimen Daily Repeat, gender Male, age 6-8 weeks",
  "details": "in vivo, po, route oral GAVAGE, […]; for URIC ACID / ALANINE AMINOTRANSFERASE / ALBUMIN / ALKALINE PHOSPHATASE / ASPARTATE AMINOTRANSFERASE / BLOOD UREA NITROGEN / CARBON DIOXIDE / CHOLESTEROL / CREATINE PHOSPHOKINASE / CREATININE / GLUCOSE / LACTATE DEHYDROGENASE / LIPASE / TOTAL BILIRUBIN / TOTAL PROTEIN: tissue Plasma; for ABSOLUTE BASOPHIL / ABSOLUTE EOSINOPHIL / ABSOLUTE LYMPHOCYTE / ABSOLUTE MONOCYTE / ABSOLUTE SEGMENTED NEUTROPHIL / BASOPHIL / EOSINOPHIL / ERYTHROCYTE COUNT / HEMATOCRIT / HEMOGLOBIN / LEUKOCYTE COUNT / LYMPHOCYTE / MEAN CORPUSCULAR HEMOGLOBIN / MEAN CORPUSCULAR HEMOGLOBIN CONCENTRATION / MEAN CORPUSCULAR VOLUME / MONOCYTE / NEUTROPHIL / NUCLEATED RED BLOOD CELLS / PLATELET COUNT: tissue Blood",
  "key": {"[1]": {"details": "72 h, dose 2.5 mg/Kg, dose level Low, time 3 day"}, "[2]": {"details": "120 h, dose 2.5 mg/Kg, dose level Low, time 5 day"}},
  "data": [
    {"smiles": "CC/C(=C(\\c1ccccc1)c1ccc(OCCN(C)C)cc1)c1ccccc1", "note": "[TAMOXIFEN]", "values": [
      {"measurement": "URIC ACID", "setting": "64 mg/kg, 120 h, dose level High, time 5 day", "result": 0.67, "unit": "mg/dL"},
      {"measurement": "ABSOLUTE BASOPHIL", "setting": "[1]", "result": 0, "unit": "CELLS/uL"},
      {"measurement": "ABSOLUTE EOSINOPHIL", "setting": "[1]", "result": 0, "unit": "CELLS/uL"},
      {"measurement": "ABSOLUTE LYMPHOCYTE", "setting": "[1]", "result": 5987.33, "unit": "CELLS/uL"},
      {"measurement": "ABSOLUTE MONOCYTE", "setting": "[1]", "result": 0, "unit": "CELLS/uL"},
      {"measurement": "ABSOLUTE SEGMENTED NEUTROPHIL", "setting": "[1]", "result": 346, "unit": "CELLS/uL"},
      {"measurement": "BASOPHIL", "setting": "[1]", "result": 0, "unit": "%"},
      {"measurement": "EOSINOPHIL", "setting": "[1]", "result": 0, "unit": "%"},
      {"measurement": "ERYTHROCYTE COUNT", "setting": "[1]", "result": 5.38, "unit": "x10E6/uL"},
      {"measurement": "HEMATOCRIT", "setting": "[1]", "result": 32.47, "unit": "%"},
      {"measurement": "HEMOGLOBIN", "setting": "[1]", "result": 12.63, "unit": "G/DL"},
      {"measurement": "LEUKOCYTE COUNT", "setting": "[1]", "result": 6.33, "unit": "x10E3/uL"},
      {"measurement": "LYMPHOCYTE", "setting": "[1]", "result": 94.33, "unit": "%"},
      {"measurement": "MEAN CORPUSCULAR HEMOGLOBIN", "setting": "[1]", "result": 23.5, "unit": "pg"},
      {"measurement": "MEAN CORPUSCULAR HEMOGLOBIN CONCENTRATION", "setting": "[1]", "result": 38.9, "unit": "G/DL"},
      {"measurement": "MEAN CORPUSCULAR VOLUME", "setting": "[1]", "result": 60.4, "unit": "fL"},
      {"measurement": "MONOCYTE", "setting": "[1]", "result": 0, "unit": "%"},
      {"measurement": "NEUTROPHIL", "setting": "[1]", "result": 5.67, "unit": "%"},
      {"measurement": "NUCLEATED RED BLOOD CELLS", "setting": "[1]", "result": "0 /100WBC"},
      {"measurement": "PLATELET COUNT", "setting": "[1]", "result": 919.67, "unit": "x10E3/uL"},
      {"measurement": "ALANINE AMINOTRANSFERASE", "setting": "[1]", "result": 63.33, "unit": "u/L"},
      {"measurement": "ALBUMIN", "setting": "[1]", "result": 3.8, "unit": "G/DL"},
      {"measurement": "ALKALINE PHOSPHATASE", "setting": "[1]", "result": 412.33, "unit": "u/L"},
      {"measurement": "ASPARTATE AMINOTRANSFERASE", "setting": "[1]", "result": 76.33, "unit": "u/L"},
      {"measurement": "BLOOD UREA NITROGEN", "setting": "[1]", "result": 11, "unit": "mg/dL"},
      {"measurement": "CARBON DIOXIDE", "setting": "[1]", "result": 34, "unit": "mmol/L"},
      {"measurement": "CHOLESTEROL", "setting": "[1]", "result": 44.33, "unit": "mg/dL"},
      {"measurement": "CREATINE PHOSPHOKINASE", "setting": "[1]", "result": 193, "unit": "u/L"},
      {"measurement": "CREATININE", "setting": "[1]", "result": 0.1, "unit": "mg/dL"},
      {"measurement": "GLUCOSE", "setting": "[1]", "result": 160.67, "unit": "mg/dL"},
      {"measurement": "LACTATE DEHYDROGENASE", "setting": "[1]", "result": 89, "unit": "u/L"},
      {"measurement": "LIPASE", "setting": "[1]", "result": 10, "unit": "u/L"},
      {"measurement": "TOTAL BILIRUBIN", "setting": "[1]", "result": 0.13, "unit": "mg/dL"},
      {"measurement": "TOTAL PROTEIN", "setting": "[1]", "result": 5.67, "unit": "G/DL"},
      {"measurement": "URIC ACID", "setting": "[1]", "result": 0.57, "unit": "mg/dL"},
      {"measurement": "ABSOLUTE BASOPHIL", "setting": "[2]", "result": 0, "unit": "CELLS/uL"},
      {"measurement": "ABSOLUTE EOSINOPHIL", "setting": "[2]", "result": 0, "unit": "CELLS/uL"},
      {"measurement": "ABSOLUTE LYMPHOCYTE", "setting": "[2]", "result": 7101.67, "unit": "CELLS/uL"},
      {"measurement": "ABSOLUTE MONOCYTE", "setting": "[2]", "result": 21.33, "unit": "CELLS/uL"},
      {"measurement": "ABSOLUTE SEGMENTED NEUTROPHIL", "setting": "[2]", "result": 443.67, "unit": "CELLS/uL"},
      {"measurement": "BASOPHIL", "setting": "[2]", "result": 0, "unit": "%"},
      {"measurement": "EOSINOPHIL", "setting": "[2]", "result": 0, "unit": "%"},
      {"measurement": "ERYTHROCYTE COUNT", "setting": "[2]", "result": 5.73, "unit": "x10E6/uL"},
      {"measurement": "HEMATOCRIT", "setting": "[2]", "result": 35.9, "unit": "%"},
      {"measurement": "HEMOGLOBIN", "setting": "[2]", "result": 14, "unit": "G/DL"},
      {"measurement": "LEUKOCYTE COUNT", "setting": "[2]", "result": 7.57, "unit": "x10E3/uL"},
      {"measurement": "LYMPHOCYTE", "setting": "[2]", "result": 93.67, "unit": "%"},
      {"measurement": "MEAN CORPUSCULAR HEMOGLOBIN", "setting": "[2]", "result": 24.43, "unit": "pg"},
      {"measurement": "MEAN CORPUSCULAR HEMOGLOBIN CONCENTRATION", "setting": "[2]", "result": 39.07, "unit": "G/DL"},
      {"measurement": "MEAN CORPUSCULAR VOLUME", "setting": "[2]", "result": 62.63, "unit": "fL"},
      {"measurement": "MONOCYTE", "setting": "[2]", "result": 0.33, "unit": "%"},
      {"measurement": "NEUTROPHIL", "setting": "[2]", "result": 6, "unit": "%"},
      {"measurement": "NUCLEATED RED BLOOD CELLS", "setting": "[2]", "result": "0.33 /100WBC"},
      {"measurement": "PLATELET COUNT", "setting": "[2]", "result": 1179.33, "unit": "x10E3/uL"},
      {"measurement": "ALANINE AMINOTRANSFERASE", "setting": "[2]", "result": 95, "unit": "u/L"},
      {"measurement": "ALBUMIN", "setting": "[2]", "result": 4.13, "unit": "G/DL"},
      {"measurement": "ALKALINE PHOSPHATASE", "setting": "[2]", "result": 534.33, "unit": "u/L"},
      {"measurement": "ASPARTATE AMINOTRANSFERASE", "setting": "[2]", "result": 94.33, "unit": "u/L"},
      {"measurement": "BLOOD UREA NITROGEN", "setting": "[2]", "result": 11.33, "unit": "mg/dL"},
      {"measurement": "CARBON DIOXIDE", "setting": "[2]", "result": 31, "unit": "mmol/L"},
      {"measurement": "CHOLESTEROL", "setting": "[2]", "result": 43, "unit": "mg/dL"},
      {"measurement": "CREATINE PHOSPHOKINASE", "setting": "[2]", "result": 303.67, "unit": "u/L"},
      {"measurement": "CREATININE", "setting": "[2]", "result": 0.1, "unit": "mg/dL"},
      {"measurement": "GLUCOSE", "setting": "[2]", "result": 148.33, "unit": "mg/dL"},
      {"measurement": "LACTATE DEHYDROGENASE", "setting": "[2]", "result": 142.67, "unit": "u/L"},
      {"measurement": "LIPASE", "setting": "[2]", "result": 10.67, "unit": "u/L"},
      {"measurement": "TOTAL BILIRUBIN", "setting": "[2]", "result": 0.1, "unit": "mg/dL"},
      {"measurement": "TOTAL PROTEIN", "setting": "[2]", "result": 6, "unit": "G/DL"},
      {"measurement": "URIC ACID", "setting": "[2]", "result": 0.73, "unit": "mg/dL"}
    ]}
  ]
}
